{
  "source": "patent US6995269B2",
  "about": "“Guanidinobenzamides” (Chiron Corporation, priority 2000, dated 2006)",
  "type_in_all_cases": "in vivo",
  "key": {"ob/ob mice [1]": {"system": "ob/ob mice", "assay": "Food intake in ob/ob mice, 4 week IP treatment", "conditions": "3 mg/kg IP twice daily for 4 weeks, vs vehicle", "procedure": "(§1) In vivo studies were conducted to observe the effect of MCR-4 agonists on energy intake, body weight, hyperinsulinemia, and glucose levels. All studies were conducted with male-9–10 week old ob/ob mice which display early onset of obesity, insulin resistance and diabetes due to leptin deficiency. Mice were acclimated in the facility for 1 week before studies and are caged individually. Vehicle-treated (control) and drug treated mice studies were always run in parallel. In multi-day studies, mice (8–15 per group) were monitored for baseline body weight, fasting levels of glucose, insulin, blood lipids and energy expenditure and then injected twice daily (9 a.m. and 5 p.m.) with 3 mg/kg of the MC4-R agonist 4-[(N-cyclohexyl-3,5-dimethyl-piperazine-1-carboximidoyl)-amino]-N-[2-(2,4-dichlorophenyl)-ethyl]-benzamide for 4 weeks. Body weight as well as food and water intake were monitored daily. […] Energy expenditure (resting metabolic rate, i.e., O2 consumption and CO2 production) were monitored in air tight chambers at the end of the study on fed animals. O2 consumption and CO2 production were measured using Oxymax systems (Columbus Instruments). […] Blood glucose and oral glucose tolerance were measured using a glucose monitor (Onetouch sold by Lifescan). Free fatty acids were measured using an non-esterified free fatty acids enzymatic assay (Waco Chemicals). […]"}, "ob/ob mice [2]": {"system": "ob/ob mice", "assay": "Body weight in ob/ob mice, 4 week IP treatment", "conditions": "3 mg/kg IP twice daily for 4 weeks", "procedure": "as §1"}, "ob/ob mice [3]": {"system": "ob/ob mice", "assay": "Fasting blood glucose in ob/ob mice, 4 week IP treatment", "conditions": "ob/ob mice fasted overnight, 3 mg/kg IP twice daily for 4 weeks, vs vehicle", "procedure": "as §1"}, "ob/ob mice [4]": {"system": "ob/ob mice", "assay": "Oral glucose tolerance test (OGTT) in ob/ob mice at end of study", "conditions": "overnight fasted ob/ob mice at end of 4 week study, oral glucose load, vs vehicle", "procedure": "as §1"}, "ob/ob mice [5]": {"system": "ob/ob mice", "assay": "Free fatty acid levels in ob/ob mice", "conditions": "ob/ob mice fasted overnight, drug treated IP vs vehicle", "procedure": "as §1"}, "ob/ob mice [6]": {"system": "ob/ob mice", "assay": "Serum insulin levels after single IP dosing in ob/ob mice", "conditions": "overnight fasted ob/ob mice", "procedure": "as §1"}},
  "data": [
    {"compound": "CC1CN(C(=NC2CCCCC2)Nc2ccc(C(=O)NCCc3ccc(Cl)cc3Cl)cc2)CC(C)N1", "note": "(stereo not shown) [4-[(N-cyclohexyl-3,5-dimethyl-piperazine-1-carboximidoyl)-amino]-N-[2-(2,4-dichlorophenyl)-ethyl]-benzamide]", "values": [
      {"measurement": "food intake", "setting": "ob/ob mice [1]", "value": "significant reduction in food intake"},
      {"measurement": "body weight less than the vehicle treated mice at the end of the study", "setting": "ob/ob mice [2]", "value": 19, "unit": "%"},
      {"measurement": "decrease in fasting blood glucose levels", "setting": "ob/ob mice [3]", "value": 47, "unit": "%"},
      {"measurement": "decrease of the area under the curve of glucose in OGTT", "setting": "ob/ob mice [4]", "value": 45, "unit": "%"},
      {"measurement": "decrease in free fatty acid (FFA) levels", "setting": "ob/ob mice [5]", "value": 50, "unit": "%"},
      {"measurement": "decrease of serum insulin levels relative to vehicle", "setting": "ob/ob mice [6]; one hour after single IP dosing of 1 mg/kg", "value": 27, "unit": "%"},
      {"measurement": "decrease of serum insulin levels relative to vehicle", "setting": "ob/ob mice [6]; one hour after single IP dosing of 3 mg/kg", "value": 55, "unit": "%"}
    ]}
  ]
}
